# Results from US20030215462A1, “Use of UGT inhibitors to increase bioavailability” (priority 2001, published 2003).
# Where “and” joins values, the source holds several entries; their conditions need not be identical. Identical values can stand only once. Like-named read-outs stand apart in the source and are kept apart here.
# Assays:
# Type in all cases: biochemical
# [1] = system: UGT enzymes of human liver microsomes; assay: Inhibition of raloxifene glucuronidation (G1, G2) in human liver microsomes
# Source text: Compounds were eluted using a binary solvent gradient system. […] Solvent B was methanol. […] Detection was at 280 nm.
# [2] = biological target: T1, UGT enzymes of human liver microsomes (Homo sapiens, UniProt P16662); assay: Inhibition of zidovudine glucuronidation in human liver microsomes; details: liver lot 062101
# T1 construct: residual metabolism (percentage of control), zidovudine glucuronidation; other: liver lot 062101; residual metabolism (percentage of control), zidovudine glucuronidation; residual metabolism (percentage of control)
# T1 sequence (P16662 1-529): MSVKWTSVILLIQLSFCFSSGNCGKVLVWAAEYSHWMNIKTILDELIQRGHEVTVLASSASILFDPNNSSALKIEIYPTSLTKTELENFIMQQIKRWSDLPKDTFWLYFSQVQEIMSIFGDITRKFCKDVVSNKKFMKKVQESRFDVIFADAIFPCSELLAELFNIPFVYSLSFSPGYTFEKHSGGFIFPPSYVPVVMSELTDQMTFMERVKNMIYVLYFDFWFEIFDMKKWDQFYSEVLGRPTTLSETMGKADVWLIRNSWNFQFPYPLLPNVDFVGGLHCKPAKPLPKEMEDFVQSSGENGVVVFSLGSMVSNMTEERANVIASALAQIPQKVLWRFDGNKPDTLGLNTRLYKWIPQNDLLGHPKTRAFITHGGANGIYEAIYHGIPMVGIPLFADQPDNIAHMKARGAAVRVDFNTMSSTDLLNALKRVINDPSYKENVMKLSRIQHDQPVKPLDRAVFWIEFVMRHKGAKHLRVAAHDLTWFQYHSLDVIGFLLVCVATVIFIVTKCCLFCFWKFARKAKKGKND
# Method: Compounds were eluted using a binary solvent gradient system where solvent A was dilute phosphoric acid (pH 3) and solvent B was acetonitrile.
# Standardized incubations utilized 500 μM zidovudine substrate, 1 mg/ml microsomal protein, 5 mM UDPGA and a 30 min incubation time. […] Int.
# [3] = system: T2, UGT enzymes of human liver microsomes; assay: Inhibition of 7-HFC glucuronidation in human liver microsomes; details: for % of control metabolism (SD, n = 3), 7-HFC glucuronidation: 7-HFC 50 μM, human liver microsomes 100 μg/ml, 15 min
# T2 construct: percentage of control metabolism, 7-HFC glucuronidation; percentage of control metabolism, 7-HFC glucuronidation
# [4] = G1, inhibitor 100 μM, raloxifene 50 μM, human liver microsomes 250 μg/ml, 15 min
# [5] = G1, inhibitor 500 μM, raloxifene 50 μM, human liver microsomes 250 μg/ml, 15 min
# [6] = G2, inhibitor 100 μM, raloxifene 50 μM, human liver microsomes 250 μg/ml, 15 min
# [7] = G2, inhibitor 500 μM, raloxifene 50 μM, human liver microsomes 250 μg/ml, 15 min
Structure (SMILES),"residual metabolism (percentage of control), zidovudine glucuronidation ([2]; inhibitor 500 μM)","% of control metabolism (SD, n = 3), 7-HFC glucuronidation ([3]; inhibitor 500 μM)","percentage of control metabolism, 7-HFC glucuronidation ([3]; inhibitor 100 μM)","% of control metabolism (SD, n = 3), 7-HFC glucuronidation ([3]; inhibitor 100 μM)","percentage of control metabolism, 7-HFC glucuronidation ([3]; inhibitor 200 μM)","% of control metabolism (SD, n = 3), 7-HFC glucuronidation ([3]; inhibitor 200 μM)","percentage of control metabolism, 7-HFC glucuronidation ([3]; inhibitor 500 μM)","% of control metabolism (SD, n = 3), raloxifene glucuronide G1 [1, 5]","residual metabolism (percentage of control), zidovudine glucuronidation ([2]; inhibitor 1000 μM)",other results
"Cc1cc(=O)oc2cc(O)ccc12 [4-Methylumbelliferone, reference compound]",81 (2) %,"45 (1), % and 47 (2) %",78 (1) %,78 (1) %,64 (1) %,64 (1) %,45 (1) % and 47 (2) %,–,–,"% of control metabolism, raloxifene G1 [1]: 35 (3), 39 (2) % and 37 (1), 40 (1) % and 51 (1), 53 (2) % and 69 (4), 71 (8) %; % of control metabolism, raloxifene G2 [1]: 35 (3), 39 (2) % and 37 (1), 40 (1) % and 51 (1), 53 (2) % and 69 (4), 71 (8) %"
COc1cc(CNC(=O)CCCC/C=C/C(C)C)ccc1O [Capsaicin],57 (4) %,39 (0) %,53 (1) % and 57 (0) %,"53 (1), % and 57 (0) %",42 (1) % and 44 (1) %,"42 (1), % and 44 (1) %",39 (0) %,26 (1) %,34 (1) %,"% of control metabolism (SD, n = 3), raloxifene glucuronide G1 [1, 4]: 55 (4) %; % of control metabolism (SD, n = 3), raloxifene glucuronide G2 [1, 6]: 69 (4) %; % of control metabolism (SD, n = 3), raloxifene glucuronide G2 [1, 7]: 33 (3) %; percentage of control metabolism, 7-HFC glucuronidation ([3]; inhibitor 50 μM): 69 (1) %; % of control metabolism (SD, n = 3), 7-HFC glucuronidation ([3]; inhibitor 50 μM): 69 (1) %"
Cc1ccc(C(C)C)cc1O [Carvacrol],50 (3) % and 45 (0) %,31 (1) %,79 (1) %,79 (1) %,63 (0) %,63 (0) %,31 (1) %,–,20 (1) %,"% of control metabolism (SD, n = 3), raloxifene glucuronide G1 [1]: 37 (1) % and 64 (1) %; % of control metabolism (SD, n = 3), raloxifene glucuronide G2 [1]: 33 (0) % and 60 (1) %; residual metabolism (percentage of control), zidovudine glucuronidation ([2]; inhibitor 100 μM): 94 (1) %; residual metabolism (percentage of control), zidovudine glucuronidation ([2]; inhibitor 200 μM): 75 (3) %"
O=C(O)C=Cc1ccccc1 [Cinnamic acid],97 (3) %,94 (2) %,–,–,–,–,–,–,–,–
COc1cc(CNC(=O)CCCCCCC(C)C)ccc1O [Dihydrocapsaicin],50 (1) %,42 (2) %,60 (3) %,60 (3) %,52 (2) %,52 (2) %,42 (2) %,18 (1) %,42 (2) %,"% of control metabolism (SD, n = 3), raloxifene glucuronide G1 [1, 4]: 49 (1) %; % of control metabolism (SD, n = 3), raloxifene glucuronide G2 [1, 6]: 68 (2) %; % of control metabolism (SD, n = 3), raloxifene glucuronide G2 [1, 7]: 26 (1) %"
"C[C@]12CC[C@@H]3c4ccc(O)cc4CC[C@H]3[C@@H]1CC[C@@H]2O [E2, 17-β-estradiol, reference compound]",29 (1) % and 24 (2) %,80 (2) %,–,–,–,–,–,39 (1) %,–,"% of control metabolism (SD, n = 3), raloxifene glucuronide G2 [1, 7]: 56 (2) %; residual metabolism (percentage of control), zidovudine glucuronidation ([2]; inhibitor 50 μM): 50 (1) %; residual metabolism (percentage of control), zidovudine glucuronidation ([2]; inhibitor 100 μM): 28 (1) %; residual metabolism (percentage of control), zidovudine glucuronidation ([2]; inhibitor 200 μM): 24 (0) %"
CC(C)=CCC/C(C)=C/CO [Geraniol],28 (3) % and 25 (0) %,75 (0) %,–,–,–,–,–,–,9 (1) %,"residual metabolism (percentage of control), zidovudine glucuronidation ([2]; inhibitor 100 μM): 77 (5) %; residual metabolism (percentage of control), zidovudine glucuronidation ([2]; inhibitor 200 μM): 62 (3) %"
"COc1ccc2c(c1)c(CC(=O)O)c(C)n2C(=O)c1ccc(Cl)cc1 [Indomethacin, reference compound]",68 (7) %,"49 (2), % and 48 (1) %",–,82 (0) %,–,73 (1) %,–,–,–,–
CCCCCCCCC(=O)NCc1ccc(O)c(OC)c1 [N-Vanillylnonanamide],67 (1) %,48 (1) %,69 (1) %,69 (1) %,63 (2) %,63 (2) %,48 (1) %,14 (1) %,40 (1) %,"% of control metabolism (SD, n = 3), raloxifene glucuronide G1 [1, 4]: 48 (1) %; % of control metabolism (SD, n = 3), raloxifene glucuronide G2 [1, 6]: 62 (1) %; % of control metabolism (SD, n = 3), raloxifene glucuronide G2 [1, 7]: 17 (2) %"

# Continued, in another order:
"residual metabolism (percentage of control), zidovudine glucuronidation ([2]; inhibitor 500 μM)","% of control metabolism (SD, n = 3), 7-HFC glucuronidation ([3]; inhibitor 500 μM)",Structure (SMILES),"percentage of control metabolism, 7-HFC glucuronidation ([3]; inhibitor 100 μM)","% of control metabolism (SD, n = 3), 7-HFC glucuronidation ([3]; inhibitor 100 μM)","percentage of control metabolism, 7-HFC glucuronidation ([3]; inhibitor 200 μM)","% of control metabolism (SD, n = 3), 7-HFC glucuronidation ([3]; inhibitor 200 μM)","percentage of control metabolism, 7-HFC glucuronidation ([3]; inhibitor 500 μM)","% of control metabolism (SD, n = 3), raloxifene glucuronide G1 [1, 5]","residual metabolism (percentage of control), zidovudine glucuronidation ([2]; inhibitor 1000 μM)",other results
73 (5) %,86 (2) %,C=CC(C)(O)CCC=C(C)C (centres unmarked) [Linalool],–,–,–,–,–,–,–,–
68 (5) %,33 (1) %,CCCCC/C=C\C/C=C\CCCCCCCC(=O)O [Linoleic acid],86 (3) %,86 (3) %,77 (4) %,77 (4) %,33 (1) %,29 (0) %,–,"% of control metabolism (SD, n = 3), raloxifene glucuronide G1 [1, 4]: 101 (8) %; % of control metabolism (SD, n = 3), raloxifene glucuronide G2 [1, 6]: 100 (4) %"
35 (1) %,–,CC(=O)OC1CC(C)CCC1C(C)C (centres unmarked) [Menthyl acetate],–,–,–,–,–,–,20 (1) %,"residual metabolism (percentage of control), zidovudine glucuronidation ([2]; inhibitor 200 μM): 64 (2) %"
76 (2) %,25 (1) %,CC1=C(/C=C/C(C)=C/C=C/C(C)=C/CO)C(C)(C)CCC1 [Retinol],59 (1) %,59 (1) %,39 (1) %,39 (1) %,25 (1) %,–,–,–
81 (4) %,–,COc1cc(C=O)ccc1O [Vanillin],–,–,–,–,–,–,–,–
95 (5) %,"42 (0), % and 42 (0) %",COc1cc(CO)ccc1O [Vanillyl alcohol],–,79 (1) %,–,67 (3) %,–,–,–,–
